Laboratory results taken from US20250281495A1, “METHODS FOR INHIBITING INFLAMMATION AND PROGRESSION OF ATHEROSCLEROTIC PLAQUES AND CARDIOVASCULAR EVENTS IN PATIENTS WITH CEREBRO- AND CARDIO-VASCULAR DISEASE” (ICAHN SCHOOL OF MEDICINE AT MOUNT SINAI, priority 2021, published 2025).

Test system: kinase phosphorylation (pCREB, pp38, pMAPKA2P, pS6, pERK1/2) in PBMCs
Experiment: CyTOF screening of candidate small molecules in healthy PBMCs stimulated with atherosclerotic plasma
Type: cell-based, human
Conditions: for reversal of the inflammatory signature activated by atherosclerotic plasma: CyTOF screening
Protocol: To test the efficacy of candidate small molecules in reversing immune response of PBMCs to atherosclerotic plasma, the inventors examined cell type-specific pharmacologic effects of selected candidate compounds. Using healthy PBMCs, the inventors assessed the activity of selected small molecules in the presence of atherosclerotic plasma stimulation that followed 30 minutes of pretreatment with each candidate compounds. Using CyTOF mass-cytometry, the inventors measured the specific inhibition of kinase phosphorylation (i.e., pCREB, pp38, pMAPKA2P, pS6, pERK1/2) in each cell type at the single cell level for each drug (FIGS. 8 and 9).

[1] = CD16+ monocytes and CD1c+ DC, atherosclerotic plasma
[2] = CD14+ and CD16+ monocytes and CD1c+ DC (these cells)
[3] = CD14+ and CD16+ monocytes and CD1c+ DC, atherosclerotic plasma

SMILES | p38 phosphorylation (CD1c+ DC, atherosclerotic plasma) | ERK1/2 phosphorylation [1] | reversal of the inflammatory signature activated by atherosclerotic plasma | phosphorylation of major kinases (e.g., CREB and S6) implicated in the inflammatory transcriptional reprogramming (atherosclerotic plasma) | ERK1/2 phosphorylation in response to atherosclerosis plasma [2] | p38 phosphorylation in response to atherosclerosis plasma [2] | CREB phosphorylation [3] | S6 phosphorylation [3] | MAPKA2P phosphorylation [1] | inhibition of most specific kinase phosphorylation activated by atherosclerosis plasma (cell-specificity for monocytes and CD1c+ DC, 30 minutes of pretreatment)
CC[C@H](C)C(=O)O[C@H]1CCC=C2C=C[C@H](C)[C@H](CC[C@@H]3C[C@@H](O)CC(=O)O3)[C@H]21 [Mevastatin] | inhibited | inhibited | did not fully reverse | did not affect |  |  |  |  |  | 
CS(=O)(=O)O.Cn1cc(C2=C(c3cn(CCCSC(=N)N)c4ccccc34)C(=O)NC2=O)c2ccccc21 [Ro 31-8220 mesylate] |  |  | reversed |  | not inhibited | not inhibited | significant inhibition | significant inhibition | significant inhibition | significant inhibition
